Data reported in patent US10302632B2, “Macromolecular conjugates for visualization and separation of proteins and cells” (USTAV ORGANICKE CHEMIE A BIOCHEMIE AV CR, V.V.I., priority 2015, dated 2019).
Like-named read-outs stand apart in the source and are kept apart here. Blank lines part the entries; values can stand above or below the compound they belong to. Square brackets hold non-standard residues; d marks the D form. Peptide text beside a SMILES is read from it. Sta = CC(C)C[C@H](N)[C@@H](O)CC(=O)O; AEEA = NCCOCCOCC(=O)O

Key:
[1] = target: T1, recombinant extracellular GCPII (Avi-GCPII) (Homo sapiens, UniProt Q04609); experiment: Inhibition of GCPII hydrolytic activity (HPLC assay); format: biochemical
T1 construct: using a recombinant extracellular GCPII (Avi-GCPII; prepared according to [13]); Avi-tag; made in house
T1 sequence (Q04609 44-750 limits assumed): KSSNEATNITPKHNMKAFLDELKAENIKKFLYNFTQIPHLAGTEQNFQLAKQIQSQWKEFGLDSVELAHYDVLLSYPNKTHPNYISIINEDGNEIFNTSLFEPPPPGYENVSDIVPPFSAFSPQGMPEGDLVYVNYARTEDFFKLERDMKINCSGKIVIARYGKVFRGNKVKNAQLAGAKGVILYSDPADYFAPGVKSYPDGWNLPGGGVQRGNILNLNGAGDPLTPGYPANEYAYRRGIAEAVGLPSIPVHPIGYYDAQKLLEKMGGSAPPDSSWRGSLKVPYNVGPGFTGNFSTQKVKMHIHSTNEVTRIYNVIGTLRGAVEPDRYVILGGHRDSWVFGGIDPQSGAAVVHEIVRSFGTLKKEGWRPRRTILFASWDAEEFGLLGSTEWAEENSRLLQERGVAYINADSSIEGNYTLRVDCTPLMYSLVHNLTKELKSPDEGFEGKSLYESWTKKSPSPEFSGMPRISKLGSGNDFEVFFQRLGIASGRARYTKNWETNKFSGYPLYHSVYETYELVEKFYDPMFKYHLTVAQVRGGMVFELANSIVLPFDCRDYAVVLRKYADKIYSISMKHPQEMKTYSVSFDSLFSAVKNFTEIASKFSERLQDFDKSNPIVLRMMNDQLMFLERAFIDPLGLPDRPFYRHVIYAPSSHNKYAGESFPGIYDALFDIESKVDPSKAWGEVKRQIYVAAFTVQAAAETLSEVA
Experimental: Inhibitory potency of the inhibitors and polymeric conjugates on the hydrolytic activity of GCPII were tested by HPLC (described in [12]) using a recombinant extracellular GCPII (Avi-GCPII; prepared according to [13]). 210 pg of GCPII was mixed with a solution of 25 mM Bis-Tris propane, 150 mM NaCl, pH 7.4, 0.001% monododecyl(oktaethylenglycol)ether (Affymetrix, Octaethylene glycol monododecyl ether) and inhibitor solution to a total volume of 180 μl in a 96-well plate. Ten different inhibitor concentrations covering the whole inhibition curve were used. Reactions were first incubated 5 min at 37° C., then initiated by addition of 20 μl of pteroyl-bis(L-glutamate) to a final concentration of 400 nM and incubated at 37° C. for 20 min. […] Subsequently, 100 μl of the reaction mixture was analyzed in Agilent 1200 Infinity (Agilent Technologies, Inc.) on an RP-HPLC column Waters Acquity UPLC HSS T3 1.8 μm, 2.1×100 mm (Waters). HPLC analysis was performed isocratically in 2.7% acetonitrile and 97.3% 20 mM phosphate, pH 6.0. Substrate and product absorbance was measured at 281 nm. IC50 values were obtained from GraFit v.5.0.11 (Erithacus Software Ltd.).
Assuming competitive type of inhibition and using the values of KM and kcat, the Ki values for each inhibitor were determined from the Cheng-Prusoff equation [14].

HIV-1 protease = target: T2, HIV-1 protease (Human immunodeficiency virus type 1 group M subtype B, UniProt P04585); experiment: Inhibition of HIV-1 protease activity (spectrophotometric, chromogenic peptide substrate); format: biochemical; conditions: pH 4.7, substrate 16 μM
T2 construct: HIV-1 protease is a homodimeric aspartic protease
Experimental: The inhibition analyses were performed by spectrophotometric assay using the chromogenic peptide substrate KARVNle*NphEANle-NH2 as previously described.
The 1 ml reaction mixture contained 100 mM sodium acetate, 300 mM NaCl, pH 4.7, 6.8 pmol of HIV-1 protease and inhibitor in concentrations ranging between 2 and 130 nM. Substrate was added to a final concentration of 16 μM. Afterwards, the hydrolysis of substrate was followed as a decrease in absorbance at 305 nm using a UNICAM UV500 UV-VIS spectrophotometer (Thermo, Cambridge, Mass.). The data were analyzed using the equation for competitive inhibition according to Williams and Morrison. The mechanism of inhibition was determined by analysis of Lineweaver-Burk plots.

CA-IX = CA-IX (Homo sapiens, UniProt Q16790); experiment: Affinity isolation (pull-down) of CA-IX from HT-29 cell lysate; format: binding; design: HT-29 cell line endogenously expressing CA-IX; endogenous in cells; host or cells: HT-29; conditions: conjugate on Streptavidin Sepharose, Western blot
Experimental: HT29 cells (cultured in 100 mm Petri dish) endogenously expressing CA-IX were lysed by sonication in a water bath (3 min/0° C.) in 450 μl of 50 mM Tris-HCl, 150 mM NaCl, pH 7.4, 1% Tween 20. Resulting cell lysate was further diluted in 20 mM Tris-HCl, 150 mM NaCl, 0.1% Tween 20, pH 7.4 (TBST) to a final protein concentration of 360 μg/ml. Meanwhile, Conjugate 3 and Conjugate 2 (negative control showing nonspecific binding) were pre-bound to 25 μl of Streptavidin Sepharose (200 nM solution in 200 μl of TBST, 1 hour, 6° C.), and after washing with 3×200 μl TBST, the resin was mixed with 200 μl of HT-29 cell lysate and incubated at 25° C. for 3 hours. The resin was then washed with 3×200 μl of TBST and subsequently, proteins were eluted with 25 μl of sample buffer for SDS-PAGE and with heating to 98° C. for 10 min.
To compare the effectiveness of CA-IX isolation with Conjugate 3, CA-IX was also isolated with M75 antibody. The experiment was performed analogously to experiment with polymeric conjugates: 1 μg of antibody was pre-bound to 20 μl of Protein G Sepharose the procedure followed as described above. […]
After isolation, samples were separated by SDS-PAGE electrophoresis and the gel was blotted to a nitrocellulose membrane (wet blot 100 V/1 hour). […] Chemiluminescence was recorded with ChemiDoc It™ 600 Imaging System (UVP).

[2] = read-out: Ki [nM] towards HIV-1 protease

Ki [1]: 2030 pM
Compound: NCCOCCOCCOCCOCCOCCC(=O)N(CCCC[C@H](NC(=O)N[C@@H](CCC(=O)O)C(=O)O)C(=O)O)Cc1ccc(Br)cc1 [Compound A, (24S,28S)-19-(4-bromobenzyl)-24,28,30-tricarboxy-18,26-dioxo-3,6,9,12,15-pentaoxa-19,25,27-triazatriakontan-1-aminium 2,2,2-trifluoroacetate]

Compound: CC(C)[C@H](NC(=O)COCCOCCNC(=O)COCCOCCN)C(=O)N[C@@H](Cc1ccccc1)C[C@H](O)[C@H](Cc1ccccc1)NC(=O)OCc1cncs1 [compound C, (5S,6S,8S,11S)-5,8-dibenzyl-6-hydroxy-11-isopropyl-3,10,13,22-tetraoxo-1-(thiazol-5-yl)-2,15,18,24,27-pentaoxa-4,9,12,21-tetraazanonacosan-29-aminium 2,2,2-trifluoroacetate]
Ki (HIV-1 protease; [2]): 0.012 ± 0.001 nM
Ki (HIV-1 protease; read-out: Ki towards HIV-1 protease): 0.013 nM

Compound: CC(C)C[C@H](NC(=O)[C@H](C)NC(=O)C[C@H](O)[C@H](CC(C)C)NC(=O)[C@@H](NC(=O)[C@@H](NC(=O)COCCOCCNC(=O)COCCOCCN)C(C)C)C(C)C)[C@@H](O)CC(=O)O [compound D, (19S,22S,25S,26S,30S,33S)-33-((S)-2-carboxy-1-hydroxyethyl)-26-hydroxy-25-isobutyl-19,22-diisopropyl-30,35-dimethyl-8,17,20,23,28,31-hexaoxo-3,6,12,15-tetraoxa-9,18,21,24,29,32-hexaazahexatriacontan-1-aminium] (H-[AEEA][AEEA]VV[Sta]A[Sta]-OH)
Ki (HIV-1 protease; [2]): 590 nM

Compound: poly(HPMA-co-Ma-β-Ala-ATTO488-co-Ma-β-Ala-NH-biotin) [Conjugate 2]
affinity isolation / binding of CA-IX from lysate of HT-29 cells (CA-IX): no binding of CA-IX
inhibition of the activity of GCPII [1]: did not inhibit the activity of GCPII
